{
  "source": "patent US20070190095A1",
  "about": "“Coffee and its derivatives as an animal repellent composition and its use in a molluscicide bait” (priority 2006, published 2007)",
  "origin": "cited, not measured here",
  "tested_on": "snails",
  "settings": "2% solution of caffeine in water sprayed on coconut husk-chip material in which orchids are grown",
  "data": [
    {"smiles": "Cn1c(=O)c2c(ncn2C)n(C)c1=O", "note": "[caffeine, Caffeine]", "values": [
      {"measurement": "snails killed", "result": 95, "unit": "%"}
    ]}
  ]
}
